Data published in patent US11708335B2, “Pyrimidine compounds useful as tyrosine kinase inhibitors” (STERNGREENE, INC., priority 2017, dated 2023).

How the values were obtained:
EGFR(C797S) = EGFR(C797S) (Homo sapiens, UniProt P00533, C797S); experiment: RBC HotSpot kinase assay, EGFR mutants, 10 μM ATP; format: biochemical; settings: FIG. 3
Experimental: (§1) Example 2: RBC HotSpot Kinase Assay Protocol
(§2) An RBC HotSpot Kinase Assay can be performed to determine kinase activity data. A sample RBC HotSpot KinaseAssay protocol is as follows:
(§3) Reagent: Base Reaction buffer; 20 mM Hepes (pH 7.5), 10 mM MgCl2, 1 mM EGTA, 0.02% Brij35, 0.02 mg/ml BSA, 0.1 mM Na3VO4, 2 mM DTT, 1% DMSO
(§4) Add required cofactors individually to each kinase reaction.
(§5) Compound handling: Dissolve testing compounds in 100% DMSO to specific concentration. Serial dilution can be conducted using Integra Viaflo Assist in DMSO.
(§6) Prepare substrate in freshly prepared Reaction Buffer.
(§7) Deliver any required cofactors to the substrate solution above.
(§8) Deliver kinase into the substrate solution and gently mix.
(§9) Deliver compounds in 100% DMSO into the kinase reaction mixture by Acoustic technology (Echo550; nanoliter range) and incubate for 20 min at room temp.
(§10) Deliver ^33P-ATP (Specific activity 10 μCi/μl) into the reaction mixture to initiate the reaction.
(§11) Incubate for 2 hours at room temperature.
(§12) Detect radioactivity by filter-binding method.
(§13) Kinase activity data can be expressed as the percent remaining kinase activity in test samples compared to vehicle (dimethyl sulfoxide) reactions. IC50 values and curve fits can be obtained using Prism (GraphPad Software).
(§14) Essays conducted as outlined in Examples 1 and 2.

[1] = molecular target: EGFR(d746-750/T790M/C797 S) (Homo sapiens, UniProt P00533, C797S/DEL746-750/T790M); experiment: RBC HotSpot kinase assay, EGFR mutants, 10 μM ATP; format: biochemical; settings: FIG. 3
Experimental: as §1, §2, §3, §4, §5, §6, §7, §8, §9, §10, §11, §12, §13, §14

EGFR(L858R/T790M/C797S) = EGFR(L858R/T790M/C797S) (Homo sapiens, UniProt P00533, C797S/L858R/T790M); experiment: RBC HotSpot kinase assay, EGFR mutants, 10 μM ATP; format: biochemical; settings: FIG. 3
Experimental: as §1, §2, §3, §4, §5, §6, §7, §8, §9, §10, §11, §12, §13, §14

NCI-H1975 cells = experiment: In vitro proliferation (MTT) of NCI-H1975 cells; format: cell-based; settings: FIG. 4; for IC50: Homo sapiens, NCI-H1975 cells, EGFR(T790M) mutant, read-out: IC50, inhibition of NCI-H1975 cell proliferation; for activity against NCI-H1975 cells (proliferation): NCI-H1975 cells express the EGFR(T790M) mutant
Experimental: (§15) Example 1: MTT Assay Protocol
(§16) An MTT assay can be performed to screen compounds for suitability as an EGFR inhibitor. A sample MTT assay protocol is as follows:
(§17) SKBR3, BT474, MDA-MB-231, MDA-MB-453, MDA-MB-468, Ml: 5000 cells/well, 5% FBS; NE91, NR6 and NR6 derived cell lines: 2500 cells/well, 5% FBS; H1975: 5000 cells/well, 1% FBS).
(§18) Add 50 μl medium with different concentrations of inhibitors. Incubate at 37° C., 5% CO2 for 72 hrs.
(§19) Replace the medium with 100 μl of fresh medium. Leave at 37° C., 5% CO2 for 4 hrs.
(§20) Add 25 μl of MIT (5 mg/ml stock solution, final concentration 1 mg/ml) to each well. Incubate the microtrays for 2 hours at 37° C.
(§21) Add 100 μl extraction buffer (50% DMF/20% SDS at pH 4.7) to each well.
(§22) Incubate overnight at 37° C. and OD measurements at 570 nm.
(§23) A MTT assay protocol is also described in Hansen et al., “Re-examination and further development of a precise and rapid dye method for measuring cell growth/cell kill,” J. Immunol. Methods 119:203-210 (1989).
as §14

A431 cells = experiment: In vitro proliferation (MTT) of A431 cells; format: cell-based; settings: A431 cells express the wild type EGFR; FIG. 4
Experimental: as §15, §16, §17, §18, §19, §20, §21, §22, §23, §14

SMILES	activity against EGFR(C797S) (EGFR(C797S))	activity on EGFR(d746-750/T790M/C797 S) [1]	activity on EGFR(L858R/T790M/C797S) (EGFR(L858R/T790M/C797S))	IC50 (NCI-H1975 cells)	activity against NCI-H1975 cells (proliferation) (NCI-H1975 cells)	activity against NCI-H1975 cells (proliferation) (NCI-H1975 cells; listed as SG1-105)	activity against A431 cells (proliferation) (A431 cells)
CCOc1cc2ncnc(Nc3ccc(F)c(Cl)c3)c2cc1NC(=O)/C=C/CN(C)CCCOC [SGI-105]	very strong activity	good activity	good activity	181 nM	better activity	more active than SGI-078	weak activity
CCOc1cc2ncnc(Nc3ccc(F)c(Cl)c3)c2cc1NC(=O)/C=C/CN(C)CCCO [SGI-078]	very strong activity	good activity	good activity		better activity		weak activity
